Assay results: PMC6981064 (Biochemical and biophysical research communications, 2019)

Assays:
[1] = target: T1, glutamate-oxaloacetate transaminase 1 (GOT1) (Homo sapiens, UniProt P17174); assay: MDH1-coupled enzyme assay, […] h pre-incubation; assay type: biochemical
[2] = target: T1, glutamate-oxaloacetate transaminase 1 (GOT1); assay: MDH1-coupled enzyme assay, percent inhibition; assay type: biochemical

T1 sequence (P17174 2-413): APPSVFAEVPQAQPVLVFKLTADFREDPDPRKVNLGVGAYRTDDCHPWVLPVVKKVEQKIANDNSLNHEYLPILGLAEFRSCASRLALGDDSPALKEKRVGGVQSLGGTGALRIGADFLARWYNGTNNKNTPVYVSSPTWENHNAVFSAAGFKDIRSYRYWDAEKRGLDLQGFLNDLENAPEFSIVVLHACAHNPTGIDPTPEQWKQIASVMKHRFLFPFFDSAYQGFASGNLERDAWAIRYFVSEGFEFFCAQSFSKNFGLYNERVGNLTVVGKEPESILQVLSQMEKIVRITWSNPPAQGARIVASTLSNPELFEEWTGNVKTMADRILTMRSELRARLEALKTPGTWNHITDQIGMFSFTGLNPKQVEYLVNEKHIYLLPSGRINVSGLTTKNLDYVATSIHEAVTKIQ

| SMILES | IC50 [1] | MDH1-coupled enzyme assay, percent inhibition [2] |
| --- | --- | --- |
| N[C@H]1Cc2ccccc2N(O)C1=O [PF-04859989] | 8 µM | – |
| NOCC(=O)O [amino-oxyacetate] | – | The pan-transaminase inhibitor amino-oxyacetate (AOA) was used as a positive control |
